# Calls of active or inactive are those of the source. No cut-off for these calls is given here.
# Legend:
# Staphylococcus aureus [1] = experiment: Antimicrobial activity against methicillin-susceptible Staphylococcus aureus by microdilution method; type: functional
# Staphylococcus aureus [2] = experiment: Antimicrobial activity against methicillin-resistant Staphylococcus aureus by microdilution method; type: functional
# Staphylococcus aureus [3] = experiment: Antimicrobial activity against mupirocin- and methicillin-resistant Staphylococcus aureus by microdilution method; type: functional
# Streptococcus pyogenes = experiment: Antimicrobial activity against Streptococcus pyogenes by microdilution method; type: functional
# Staphylococcus aureus [4] = experiment: Antimicrobial activity against Staphylococcus aureus 8235 selected after 4 times MIC pre-incubated for 1 hr by microdilution method; type: functional
# [5] = Cytotoxicity against human CCD-32Sk cells after 48 hrs by MTT assay; type: cell-based
# Staphylococcus aureus [6] = experiment: Antimicrobial activity against Staphylococcus aureus 8235 by microdilution method; type: functional
# [7] = Therapeutic index, ratio of IC50 for human CCD-32Sk cells to MIC for Staphylococcus aureus 8235; type: cell-based; conditions: read-out: TI
# Staphylococcus aureus [8] = experiment: Antimicrobial activity against Staphylococcus aureus isolate 8235 at >200 ug/ml by microdilution method in presence of 50 % human serum; type: functional, organism-based
# Staphylococcus aureus [9] = experiment: Bacteriostatic activity against Staphylococcus aureus isolate 8235 assessed as log reduction in bacterial count at 32 times MIC after 24 hrs by microdilution method; type: functional
# Staphylococcus aureus [10] = experiment: Antimicrobial activity against methicillin-resistant Staphylococcus aureus ATCC 33591 grown as biofilms by microdilution method; type: functional
# Staphylococcus aureus [11] = experiment: Antimicrobial activity against methicillin-susceptible Staphylococcus aureus ATCC 29213 grown as biofilms by microdilution method; type: functional
# [12] = test system: Staphylococcus epidermidis; experiment: Antimicrobial activity against Staphylococcus epidermidis RP62A grown as biofilms by microdilution method; type: functional
# Staphylococcus aureus [13] = experiment: Antimicrobial activity against methicillin-resistant Staphylococcus aureus ATCC 33591 by microdilution method; type: functional
# Staphylococcus aureus [14] = experiment: Antimicrobial activity against methicillin-susceptible Staphylococcus aureus ATCC 29213 by microdilution method; type: functional
# [15] = test system: Staphylococcus epidermidis; experiment: Antimicrobial activity against Staphylococcus epidermidis RP62A by microdilution method; type: functional
# Staphylococcus aureus [16] = experiment: Antimicrobial activity against Staphylococcus aureus ATCC 29213 infected BALB/c mouse at 2 % administered topically 4 hrs post infection twice a day for 5 days; type: functional, organism-based
# [17] = Homo sapiens, CCD-32Sk, 48 h, read-out: IC50
Compound,MIC50 (Staphylococcus aureus [1]),MIC90 (Staphylococcus aureus [1]),MIC50 (Staphylococcus aureus [2]),MIC90 (Staphylococcus aureus [2]),MIC50 (Staphylococcus aureus [3]),MIC90 (Staphylococcus aureus [3]),MIC50 (Streptococcus pyogenes),MIC90 (Streptococcus pyogenes),MIC (Staphylococcus aureus [4]),"IC50 [5, 17]",MIC (Staphylococcus aureus [6]),selectivity ratio [7],Activity (Staphylococcus aureus [8]),MBEC (Staphylococcus aureus [11]),MBIC (Staphylococcus aureus [11]),MBEC [12],MBIC [12],MIC (Staphylococcus aureus [13]),MIC (Staphylococcus aureus [14]),MIC [15],also measured
CCCCCCCCCCN1C(=O)/C(=C(/C)O)C(=O)[C@@H]1C(C)C,0.8 µg/mL,0.8 µg/mL,0.8 µg/mL,1.6 µg/mL,1.6 µg/mL,3.12 µg/mL,0.2 µg/mL,0.8 µg/mL,0.8 µg/mL,356 µg/mL,25 µg/mL,14.4,inactive,25 µg/mL,1.6 µg/mL,25 µg/mL,0.8 µg/mL,0.8 µg/mL,0.8 µg/mL,0.8 µg/mL,FC (Staphylococcus aureus [9]): 2.6; MBIC (Staphylococcus aureus [10]): 0.8 µg/mL
CC1(C)S[C@@H]2[C@H](NC(=O)[C@H](N)c3ccc(O)cc3)C(=O)N2[C@H]1C(=O)O [AMOXICILLIN],,,,,,,,,12.5 µg/mL,,inactive,,,,,,,,,,IC50 ([5]; ccd-32sk): Not Active; FC (Staphylococcus aureus [9]): 2.6
CN[C@H](CC(C)C)C(=O)N[C@H]1C(=O)N[C@@H](CC(N)=O)C(=O)N[C@H]2C(=O)N[C@H]3C(=O)N[C@H](C(=O)N[C@H](C(=O)O)c4cc(O)cc(O)c4-c4cc3ccc4O)[C@H](O)c3ccc(c(Cl)c3)Oc3cc2cc(c3O[C@@H]2O[C@H](CO)[C@@H](O)[C@H](O)[C@H]2O[C@H]2C[C@](C)(N)[C@H](O)[C@H](C)O2)Oc2ccc(cc2Cl)[C@H]1O [VANCOMYCIN],0.12 µg/mL,0.2 µg/mL,0.2 µg/mL,0.4 µg/mL,> 200 µg/mL,> 200 µg/mL,0.024 µg/mL,0.024 µg/mL,,> 20000 µg/mL,0.8 µg/mL,> 25000,,>400 µg/mL,3.12 µg/mL,>400 µg/mL,12.5 µg/mL,1.6 µg/mL,0.8 µg/mL,1.6 µg/mL,MIC (Staphylococcus aureus [1]): 0.05 µg/mL; MBEC (Staphylococcus aureus [10]): >400 µg/mL; MBIC (Staphylococcus aureus [10]): 1.6 µg/mL
C/C(=C\C(=O)OCCCCCCCCC(=O)O)C[C@@H]1OC[C@H](C[C@@H]2O[C@H]2[C@@H](C)[C@H](C)O)[C@@H](O)[C@H]1O [MUPIROCIN],0.8 µg/mL,0.8 µg/mL,0.8 µg/mL,3.12 µg/mL,0.8 µg/mL,0.8 µg/mL,0.4 µg/mL,0.4 µg/mL,,> 20000 µg/mL,12.5 µg/mL,> 1600,inactive,>400 µg/mL,<0.2 µg/mL,>400 µg/mL,<0.2 µg/mL,0.06 µg/mL,0.1 µg/mL,0.12 µg/mL,Activity (Staphylococcus aureus [16]): Active
C/C(O)=C1\C(=O)[C@H](CC(C)C)N(CCC(C)C/C=C/C(C)C)C1=O (stereo not given in full),0.8 µg/mL,1.6 µg/mL,0.8 µg/mL,1.6 µg/mL,0.8 µg/mL,1.6 µg/mL,0.4 µg/mL,0.8 µg/mL,0.8 µg/mL,256 µg/mL,25 µg/mL,10.2,inactive,50 µg/mL,3.12 µg/mL,200 µg/mL,0.4 µg/mL,0.8 µg/mL,0.8 µg/mL,0.8 µg/mL,MIC (Staphylococcus aureus [3]): 0.8 µg/mL; FC (Staphylococcus aureus [9]): 2.6; MBIC (Staphylococcus aureus [10]): 0.4 µg/mL

# Reference: ChEMBL document CHEMBL1649204, “Evaluation of analogs of reutericyclin as prospective candidates for treatment of staphylococcal skin infections” (Antimicrob Agents Chemother, 2009)
